Results taken from patent US6656497B2, “Liposomal vector for active-principle” (Lipogel, priority 1997, dated 2003).

Tests used:
[1] = Passage of orally administered free calcitonin across the intestinal barrier; type: in vivo; details: 330 IU administered orally
Experimental: It is explained by the fact that during a massive administration of peptide such as calcitonin, a small percentage crosses the intestinal barrier (1%) without being denatured. In this case, 330 IU were administered, which corresponds to a lymphatic passage of 3.3 IU (passage from the intestinal lumen into the plasma, via the lymphatic canal pathway). However, the IV-route effect of calcitonin starts at 0.9 IU. It is thus normal to observe this effect of free calcitonin. The hypocalcaemia observed after oral administration of calcitonin decreases over time to return to the normal level after 90 min.

[2] = massive oral administration of peptide; cited from earlier work

CC(C)C[C@H](NC(=O)[C@H](CCCCN)NC(=O)CNC(=O)[C@H](CC(C)C)NC(=O)[C@@H](NC(=O)[C@@H]1CSSC[C@H](N)C(=O)N[C@@H](CO)C(=O)N[C@@H](CC(N)=O)C(=O)N[C@@H](CC(C)C)C(=O)N[C@@H](CO)C(=O)N[C@@H]([C@@H](C)O)C(=O)N1)C(C)C)C(=O)N[C@@H](CO)C(=O)N[C@@H](CCC(N)=O)C(=O)N[C@@H](CCC(=O)O)C(=O)N[C@@H](CC(C)C)C(=O)N[C@@H](Cc1c[nH]cn1)C(=O)N[C@@H](CCCCN)C(=O)N[C@@H](CC(C)C)C(=O)N[C@@H](CCC(N)=O)C(=O)N[C@H](C(=O)N[C@@H](Cc1ccc(O)cc1)C(=O)N1CCC[C@H]1C(=O)N[C@@H](CCCNC(=N)N)C(=O)N[C@H](C(=O)N[C@@H](CC(N)=O)C(=O)N[C@H](C(=O)NCC(=O)N[C@@H](CO)C(=O)NCC(=O)N[C@H](C(=O)N1CCC[C@H]1C(N)=O)[C@@H](C)O)[C@@H](C)O)[C@@H](C)O)[C@@H](C)O [free calcitonin, salmon calcitonin]
lymphatic passage (intestinal lumen into plasma via lymphatic canal pathway) [1]: 3.3 IU | percentage crossing the intestinal barrier without being denatured [2]: 1%
